# From US20170334899A1, “AMINO-SUBSTITUTED ISOTHIAZOLES” (Bayer Pharma Aktiengesellschaft, priority 2014, published 2017)
# Where two headings read alike, the source gives them in different places.
# How the values were obtained:
# CDK2/CycE = target: T1, CDK2/CycE (Homo sapiens, UniProt P24941); assay: CDK2/CycE kinase assay (TR-FRET); format: biochemical; settings: avg, read-out: CDK2 avg (IC50 [mol/l])
# T1 construct: GST; purchased ProQinase GmbH (Freiburg, Germany); host or cells: insect cells (Sf9)
# How it was run: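 Read-out is a TR-FRET 665/620 nm emission ratio from EDTA-stopped reactions detected with anti-pRB(pSer807/pSer811), Eu-labelled anti-mouse IgG and streptavidin-XL665, scaled between no-enzyme and uninhibited wells. Reaction: Sf9-expressed GST-CDK2/GST-CycE, 15 min compound preincubation, 10 μM ATP, 0.75 μM biotin-peptide, 25 min, 22° C., pH 8.0 Tris buffer.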
# HeLa = assay: Proliferation assay (crystal violet), HeLa; format: cell-based; settings: HeLa cells, 4 days incubation, crystal violet staining, read-out: IC50 inhibition of proliferation, HeLa
# How it was run: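 Absorbance at 595 nm of crystal-violet-stained cells after 4 days' exposure to 0.001–10 μM compound (0.5% DMSO). Values normalized to a day-0 plate (0%) and untreated cells (100%); IC50 by 4-parameter fit.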
IC50 (CDK2/CycE) [µM],"IC50 (HeLa; Homo sapiens, HeLa, 96 h) [µM]",IC50 (HeLa) [µM],Structure (SMILES)
≥ 20,0.35,–,"Cc1nsc(Nc2cnc(C(F)(F)F)cn2)c1C(=O)Nc1ccc(OCCN(C)CCC(F)(F)F)nc1 [Example 351, 3-methyl-N-(6-{2-[methyl(3,3,3-trifluoropropyl)amino]ethoxy}pyridin-3-yl)-5-{[5-(trifluoromethyl)pyrazin-2-yl]amino}-1,2-thiazole-4-carboxamide]"
≥ 20,0.39,–,"Cc1nsc(Nc2cnc(C(F)(F)F)cn2)c1C(=O)Nc1ccc(F)c(OCC2CCCN(CCF)C2)c1 (stereo not drawn) [Example 336, N-(4-fluoro-3-{[1-(2-fluoroethyl)piperidin-3-yl]methoxy}phenyl)-3-methyl-5-{[5-(trifluoromethyl)pyrazin-2-yl]amino}-1,2-thiazole-4-carboxamide]"
≥ 20,0.27,–,"Cc1nsc(Nc2cnc(C(F)(F)F)cn2)c1C(=O)Nc1ccc(OCC2CCN(CC(F)F)CC2)nc1 [Example 345, N-(6-{[1-(2,2-difluoroethyl)piperidin-4-yl]methoxy}pyridin-3-yl)-3-methyl-5-{[5-(trifluoromethyl)pyrazin-2-yl]amino}-1,2-thiazole-4-carboxamide]"
≥ 20,0.33,–,"Cc1nsc(Nc2cnc(C(F)(F)F)cn2)c1C(=O)Nc1ccc(OCCCN(C)CC(F)F)nc1 [Example 353, N-(6-{3-[(2,2-difluoroethyl)(methyl)amino]propoxy}pyridin-3-yl)-3-methyl-5-{[5-(trifluoromethyl)pyrazin-2-yl]amino}-1,2-thiazole-4-carboxamide]"
≥ 20,0.95,–,"Cc1nsc(Nc2cnc(C(F)(F)F)cn2)c1C(=O)Nc1ccc(OCCNCCC(F)(F)F)nc1 [Example 323, 3-methyl-5-{[5-(trifluoromethyl)pyrazin-2-yl]amino}-N-(6-{2-[(3,3,3-trifluoropropyl)amino]ethoxy}pyridin-3-yl)-1,2-thiazole-4-carboxamide]"
> 20,0.37,–,"Cc1nsc(Nc2cnc(C(F)(F)F)cn2)c1C(=O)Nc1ccc(OC[C@@H]2CCCN(CCC(F)(F)F)C2)nc1 [Example 377, 3-methyl-5-{[5-(trifluoromethyl)pyrazin-2-yl]amino}-N-(6-{[(3R)-1-(3,3,3-trifluoropropyl)piperidin-3-yl]methoxy}pyridin-3-yl)-1,2-thiazole-4-carboxamide]"
> 20,0.55,–,"Cc1nsc(Nc2cnc(C(F)(F)F)cn2)c1C(=O)Nc1ccc(O[C@@H]2CCN(CC(F)(F)F)C2)nc1 [Example 380, 3-methyl-N-(6-{[(3R)-1-(2,2,2-trifluoroethyl)pyrrolidin-3-yl]oxy}pyridin-3-yl)-5-{[5-(trifluoromethyl)pyrazin-2-yl]amino}-1,2-thiazole-4-carboxamide]"
≥ 20,0.33,–,"Cc1nsc(Nc2cnc(C(F)(F)F)cn2)c1C(=O)Nc1ccc(OCCCN(C)CCC(F)(F)F)nc1 [Example 355, 3-methyl-N-(6-{3-[methyl(3,3,3-trifluoropropyl)amino]propoxy}pyridin-3-yl)-5-{[5-(trifluoromethyl)pyrazin-2-yl]amino}-1,2-thiazole-4-carboxamide]"
≥ 20,0.27,–,"Cc1nsc(Nc2cnc(C(F)(F)F)cn2)c1C(=O)Nc1ccc(OCC2CCN(CC(F)(F)F)CC2)nc1 [Example 346, 3-methyl-N-(6-{[1-(2,2,2-trifluoroethyl)piperidin-4-yl]methoxy}pyridin-3-yl)-5-{[5-(trifluoromethyl)pyrazin-2-yl]amino}-1,2-thiazole-4-carboxamide]"
> 20,0.29,–,"Cc1nsc(Nc2cnc(C(F)(F)F)cn2)c1C(=O)Nc1ccc(O[C@H]2CCN(CCC(F)(F)F)C[C@@H]2F)nc1 [Example 364, N-(6-{[(3S,4S)-3-fluoro-1-(3,3,3-trifluoropropyl)piperidin-4-yl]oxy}pyridin-3-yl)-3-methyl-5-{[5-(trifluoromethyl)pyrazin-2-yl]amino}-1,2-thiazole-4-carboxamide]"
> 20,0.81,–,"Cc1nsc(Nc2cnc(C(F)(F)F)cn2)c1C(=O)Nc1ccc(N2CCN(CC(F)(F)F)CC2)cn1 [Example 373, 3-methyl-N-{5-[4-(2,2,2-trifluoroethyl)piperazin-1-yl]pyridin-2-yl}-5-{[5-(trifluoromethyl)pyrazin-2-yl]amino}-1,2-thiazole-4-carboxamide]"
> 20,0.38,–,"Cc1nsc(Nc2cnc(C(F)(F)F)cn2)c1C(=O)Nc1ccc(F)c(OC[C@@H]2CCN(CC(F)(F)F)C2)c1 [Example 339, N-(4-fluoro-3-{[(3R)-1-(2,2,2-trifluoroethyl)pyrrolidin-3-yl]methoxy}phenyl)-3-methyl-5-{[5-(trifluoromethyl)pyrazin-2-yl]amino}-1,2-thiazole-4-carboxamide]"
> 20,0.18,–,"Cc1nsc(Nc2cnc(C(F)(F)F)cn2)c1C(=O)Nc1ccc(O[C@H]2CCN(CC(F)F)C2)nc1 [Example 382, N-(6-{[(3S)-1-(2,2-difluoroethyl)pyrrolidin-3-yl]oxy}pyridin-3-yl)-3-methyl-5-{[5-(trifluoromethyl)pyrazin-2-yl]amino}-1,2-thiazole-4-carboxamide]"
> 20,0.65,–,"Cc1nsc(Nc2cnc(C(F)(F)F)cn2)c1C(=O)Nc1ccc(F)c(OC[C@H]2CCN(CCC(F)(F)F)C2)c1 [Example 399, N-(4-fluoro-3-{[(3S)-1-(3,3,3-trifluoropropyl)pyrrolidin-3-yl]methoxy}phenyl)-3-methyl-5-{[5-(trifluoromethyl)pyrazin-2-yl]amino}-1,2-thiazole-4-carboxamide]"
≥ 20,0.26,–,"Cc1nsc(Nc2cnc(C(F)(F)F)cn2)c1C(=O)Nc1ccc(OC2CCCN(CC(F)(F)F)C2)nc1 (stereo not drawn) [Example 331, 3-methyl-N-(6-{[1-(2,2,2-trifluoroethyl)piperidin-3-yl]oxy}pyridin-3-yl)-5-{[5-(trifluoromethyl)pyrazin-2-yl]amino}-1,2-thiazole-4-carboxamide]"
> 20,0.28,–,"Cc1nsc(Nc2cnc(C(F)(F)F)cn2)c1C(=O)Nc1ccc(O[C@H]2CCN(CC(F)(F)F)C2)nc1 [Example 383, 3-methyl-N-(6-{[(3S)-1-(2,2,2-trifluoroethyl)pyrrolidin-3-yl]oxy}pyridin-3-yl)-5-{[5-(trifluoromethyl)pyrazin-2-yl]amino}-1,2-thiazole-4-carboxamide]"
> 20,0.49,–,"Cc1nsc(Nc2cnc(C(F)(F)F)cn2)c1C(=O)Nc1ccc(F)c(OC[C@H]2CCN(CC(F)(F)F)C2)c1 [Example 398, N-(4-fluoro-3-{[(3S)-1-(2,2,2-trifluoroethyl)pyrrolidin-3-yl]methoxy}phenyl)-3-methyl-5-{[5-(trifluoromethyl)pyrazin-2-yl]amino}-1,2-thiazole-4-carboxamide]"
> 20,0.35,–,"Cc1nsc(Nc2cnc(C(F)(F)F)cn2)c1C(=O)Nc1ccc(O[C@@H]2CCCN(CC(F)F)C2)nc1 [Example 385, N-(6-{[(3R)-1-(2,2-difluoroethyl)piperidin-3-yl]oxy}pyridin-3-yl)-3-methyl-5-{[5-(trifluoromethyl)pyrazin-2-yl]amino}-1,2-thiazole-4-carboxamide]"
≥ 20,3.1,–,"Cc1nsc(Nc2cc(C#N)ccn2)c1C(=O)Nc1ccc(OC2CCCN(C(=O)OC(C)(C)C)C2)nc1 (stereo not drawn) [Example 34, tert-Butyl 3({5-[({5-[(4-cyanopyridin-2-yl)amino]-3-methyl-1,2-thiazol-4-yl}-carbonyl)amino]pyridin-2-yl}oxy)piperidine-1-carboxylate]"
> 20,0.37,–,"Cc1nsc(Nc2cnc(C(F)(F)F)cn2)c1C(=O)Nc1ccc(O[C@H]2CCCN(CC(F)F)C2)nc1 [Example 388, N-(6-{[(3S)-1-(2,2-difluoroethyl)piperidin-3-yl]oxy}pyridin-3-yl)-3-methyl-5-{[5-(trifluoromethyl)pyrazin-2-yl]amino}-1,2-thiazole-4-carboxamide]"
≥ 20,8,–,"Cc1nsc(Nc2cnc3ccccc3n2)c1C(=O)Nc1ccc(OC2CCCNC2)nc1 (stereo not drawn) [Example 32, 3-Methyl-N-[6-(piperidin-3-yloxy)pyridin-3-yl]-5-(quinoxalin-2-ylamino)-1,2-thiazole-4-carboxannide]"
> 20,0.3,–,"Cc1nsc(Nc2cnc(C(F)(F)F)cn2)c1C(=O)Nc1ccc(OC[C@@H]2CCCN(CC(F)F)C2)nc1 [Example 375, N-(6-{[(3R)-1-(2,2-difluoroethyl)piperidin-3-yl]methoxy}pyridin-3-yl)-3-methyl-5-{[5-(trifluoromethyl)pyrazin-2-yl]amino}-1,2-thiazole-4-carboxamide]"
≥ 20,–,0.37,"Cc1nsc(Nc2cnc(C(F)(F)F)cn2)c1C(=O)Nc1ccc(F)c(OCC2CCCN(CC(F)F)C2)c1 (stereo not drawn) [Example 334, N-(3-{[1-(2,2-difluoroethyl)piperidin-3-yl]methoxy}-4-fluorophenyl)-3-methyl-5-{[5-(trifluoromethyl)pyrazin-2-yl]amino}-1,2-thiazole-4-carboxamide]"
≥ 20,10,–,"Cc1nsc(Nc2ccc(C#N)cn2)c1C(=O)Nc1ccc(OC2CCN(CCF)CC2)nc1 [Example 29, 5-[(5-Cyanopyridin-2-yl)amino]-N-(6-{[1-(2-fluoroethyl)piperidin-4-yl]oxy}pyridin-3-yl)-3-methyl-1,2-thiazole-4-carboxamide]"
